# From patent publication US20060093596A1, “Genomic approach to identification of novel broad-spectrum antimicrobial peptides from bony fish” (priority 2002, published 2006)
# Where no end group is shown, it is not given here.
# How the values were obtained:
# [1] = test system: Salmonella enterica s. Typhimurium MS4252S (C610, supersusceptible strain); type: cell-based; details: lowest peptide concentration inhibiting growth by at least 50%; Mueller-Hinton broth
# Experimental: (§1) Most non-fish bacterial strains as well as Candida albicans were grown at 37° C. in Mueller-Hinton Broth (MHB; Difco Laboratories, Detroit), while the fish bacteria were maintained at 16° C. in Tryptic Soy Broth (TSB; Difco, 5g/l NaCl). All strains were stored at −70° C. until they were thawed for use and sub-cultured daily. The following strains, Pseudomonas aeruginosa K799 (parent of Z61), Pseudomonas aeruginosa Z61 (antibiotic supersusceptible), Salmonella typhimurium 14028s (parent of MS7953s), Salmonella typhimurium MS7953s (defensin supersusceptible), as well as Staphylococcus epidermidis (human clinical isolates) and methicillin-resistant Staphylococcus aureus (MRSA; isolated by Dr. A. Chow, University of British Columbia) have been kindly donated by Prof R. E. W. Hancock, University of British Columbia.
# (§2) The activities of the antimicrobial peptides were determined as minimal inhibitory concentrations (MICs) using the microtitre broth dilution method of Amsterdam (Amsterdam, 1996), as modified by Wu and Hancock (1999). Serial dilutions of the peptide were made in water in 96-well polypropylene (Costar, Coming Incorporated, Coming, New York) microtiter plates. Bacteria or C. albicans were grown overnight to mid-logarithmic phase as described above, and diluted to give a final inoculum size of 10^6 cfu/ml. A suspension of bacteria or yeast was added to each well of a 96 well plate and incubated overnight at the appropriate temperature. […] Three repeats of each MIC determination were performed.
# [2] = test system: Salmonella enterica s. Typhimurium 14028S (C587); type: cell-based; details: lowest peptide concentration inhibiting growth by at least 50%; Mueller-Hinton broth
# Experimental: as §1, §2
# [3] = test system: Pseudomonas aeruginosa K799 (H187); type: cell-based; details: lowest peptide concentration inhibiting growth by at least 50%; Mueller-Hinton broth
# Experimental: as §1, §2
# [4] = test system: Pseudomonas aeruginosa Z61 (H188, supersusceptible strain); type: cell-based; details: lowest peptide concentration inhibiting growth by at least 50%; Mueller-Hinton broth
# Experimental: as §1, §2
# [5] = test system: Escherichia coli C786, CGSC4908; type: cell-based; details: lowest peptide concentration inhibiting growth by at least 50%; supplemented Mueller-Hinton broth
# Experimental: All strains were stored at −70° C. until they were thawed for use and sub-cultured daily.
# Escherichia coli strain CGSC 4908 (his-67, thyA43, pyr-37), auxotrophic for thymidine, uridine, and L-histidine (Cohen et al., 1963) was kindly supplied, free of charge, by the E.coli Genetic Stock Centre (Yale University, New Haven, Conn.). MHB supplemented with 5 mg/L thymidine, 10 mg/L uridine and 20 mg/L L-histidine (Sigma Chemical Co., St. Louis, Mo.), was used to grow E.coli CGSC 4908 unless otherwise specified.
# The activities of the antimicrobial peptides were determined as minimal inhibitory concentrations (MICs) using the microtitre broth dilution method of Amsterdam (Amsterdam, 1996), as modified by Wu and Hancock (1999). Serial dilutions of the peptide were made in water in 96-well polypropylene (Costar, Coming Incorporated, Coming, New York) microtiter plates. Bacteria or C. albicans were grown overnight to mid-logarithmic phase as described above, and diluted to give a final inoculum size of 10^6 cfu/ml. A suspension of bacteria or yeast was added to each well of a 96 well plate and incubated overnight at the appropriate temperature. In the case of E. coli CGSC 4908, supplemented MHB was used. […] Three repeats of each MIC determination were performed.
# [6] = test system: Escherichia coli UB1005 (C498); type: cell-based; details: lowest peptide concentration inhibiting growth by at least 50%; Mueller-Hinton broth
# Experimental: as §1, §2
# [7] = test system: Escherichia coli DC2 (C500, outer membrane-permeable mutant); type: cell-based; details: lowest peptide concentration inhibiting growth by at least 50%; Mueller-Hinton broth
# Experimental: as §1, §2
# [8] = test system: Aeromonas salmonicida 99-1, A449
# Experimental: (§3) Most non-fish bacterial strains as well as Candida albicans were grown at 37° C. in Mueller-Hinton Broth (MHB; Difco Laboratories, Detroit), while the fish bacteria were maintained at 16° C. in Tryptic Soy Broth (TSB; Difco, 5g/l NaCl).
# (§4) Two field isolates of the salmonid pathogen Aeromonas salmonicida are from the IMB strain collection.
# as §2
# [9] = test system: Aeromonas salmonicida 97-4
# Experimental: as §3, §4, §2
# [10] = test system: Staphylococcus epidermidis C621 (clinical isolate)
# Experimental: as §1, §2
# [11] = test system: methicillin-resistant Staphylococcus aureus (MRSA) C623, SAP017; details: methicillin-resistant C623, SAP017
# Experimental: as §1, §2
# [12] = test system: Candida albicans C627, CALB105; details: C627, CALB105
# Experimental: as §1, §2
# [13] = test system: bacterial pathogens and C. albicans; assay: Spectrum of antimicrobial activity (MIC panel, overall); type: cell-based; details: summary of MIC results against bacteria and C. albicans
# Experimental: Three repeats of each MIC determination were performed.
# The minimal inhibitory concentrations of the chemically produced peptides against a wide range of baterial pathogens and C. albicans were determined and are shown in Table 9.
Substance,"Minimal inhibitory concentration, S. typh MS4252s [1] [µg/mL]","Minimal inhibitory concentration, S. typh 14028s [2] [µg/mL]","Minimal inhibitory concentration, P. aeru K799 [3] [µg/mL]","Minimal inhibitory concentration, P. aeru Z61 [4] [µg/mL]","Minimal inhibitory concentration, E. coli C786 [5] [µg/mL]","Minimal inhibitory concentration, E. coli UB1005 [6] [µg/mL]","Minimal inhibitory concentration, E. coli DC2 [7] [µg/mL]","Minimal inhibitory concentration, A. sal 99-1 [8] [µg/mL]","Minimal inhibitory concentration, A. sal 97-4 [9] [µg/mL]","Minimal inhibitory concentration, S. epi C621 [10] [µg/mL]","Minimal inhibitory concentration, MRSA C623 [11] [µg/mL]","Minimal inhibitory concentration, C. alb C627 [12] [µg/mL]","antimicrobial activity, overall (in words) [13]"
AGWGSIFKHIFKAGKFIHGAIQAHND-NH2 [NRC-14],16,>64,32,8,16,16,16,32,16,16,16,>64,–
FFRLLFHGVHHGGGYLNAA-NH2 [NRC-9],64,>64,>64,64,64,>64,>64,>64,>64,>64,>64,>64,poor or no observed activities
FFRLLFHGVHHVGKIKPRA-NH2 [NRC-10],16,>64,32,8,32,32,32,>64,32,32,64,>64,poor or no observed activities
FLGALIKGAIHGGRFIHGMIQNHH-NH2 [NRC-5],64,>64,>64,32,64,64,>64,>64,>64,32,32,>64,–
FLGLLFHGVHHVGKWIHGLIHGHH-NH2 [NRC-19],16,64,32,8,32,16,32,64,>64,8,8,64,–
GFLGILFHGVHHGRKKALHMNSERRS [NRC-20],–,–,–,–,–,–,–,>64,>64,>64,>64,>64,–
GRRKRKWLRRIGKGVKIIGGAALDHL-NH2 [NRC-3],2,8,2,1,2,8,2,2,4,8,8,4,–
GWGSFFKKAAHVGKHVGKAALTHYL-NH2 [NRC-4],2,16,8,4,2,4,2,2,2,8,8,8,–
GWGSIFKHGRHAAKHIGHAAVNHYL-NH2 [NRC-6],4,64,16,4,4,4,2,4,4,>64,32,32,–
GWKKWFTKGERLSQRHFA [NRC-18],–,–,–,–,–,–,–,>64,128,>64,>64,>64,–
GWKKWLRKGAKHLGQAAIK-NH2 [NRC-16],0.5,16,4,1,1,2,0.5,2,1,16,32,8,broad spectrum of antimicrobial activity
GWKKWLRKGAKHLGQAAIKGLAS [NRC-17],–,–,–,–,–,–,–,2,1,32,16,8,broad spectrum of antimicrobial activity
GWKSVFRKAKKVGKTVGGLALDHYL-NH2 [NRC-11],4,32,32,4,4,16,4,8,8,64,>64,32,broad spectrum of antimicrobial activity
RSTEDIIKSISGGGFLNAMNA-NH2 [NRC-8],>64,>64,>64,>64,>64,>64,>64,>64,>64,>64,>64,>64,poor or no observed activities
